Measured values: patent US10092606B2, “Synbiotic mixture” (Nestec S.A., priority 2006, dated 2018)

Biological target: toxin A from C. difficile (Clostridioides difficile, UniProt P16154)
Test: Protection of T84 monolayers against C. difficile toxin A (transepithelial electrical resistance)
Assay type: cell-based, Clostridium difficile
Conditions: T84 cells; prebiotic in combination with the same probiotic strains; fructooligosaccharides 20 g/l, galactooligosaccharides 20 g/l, sialyllactose 10 g/l; compared with preparations of the invention; FIG. 2

toxin A from C. difficile, sequence (P16154 whole entry, looked up): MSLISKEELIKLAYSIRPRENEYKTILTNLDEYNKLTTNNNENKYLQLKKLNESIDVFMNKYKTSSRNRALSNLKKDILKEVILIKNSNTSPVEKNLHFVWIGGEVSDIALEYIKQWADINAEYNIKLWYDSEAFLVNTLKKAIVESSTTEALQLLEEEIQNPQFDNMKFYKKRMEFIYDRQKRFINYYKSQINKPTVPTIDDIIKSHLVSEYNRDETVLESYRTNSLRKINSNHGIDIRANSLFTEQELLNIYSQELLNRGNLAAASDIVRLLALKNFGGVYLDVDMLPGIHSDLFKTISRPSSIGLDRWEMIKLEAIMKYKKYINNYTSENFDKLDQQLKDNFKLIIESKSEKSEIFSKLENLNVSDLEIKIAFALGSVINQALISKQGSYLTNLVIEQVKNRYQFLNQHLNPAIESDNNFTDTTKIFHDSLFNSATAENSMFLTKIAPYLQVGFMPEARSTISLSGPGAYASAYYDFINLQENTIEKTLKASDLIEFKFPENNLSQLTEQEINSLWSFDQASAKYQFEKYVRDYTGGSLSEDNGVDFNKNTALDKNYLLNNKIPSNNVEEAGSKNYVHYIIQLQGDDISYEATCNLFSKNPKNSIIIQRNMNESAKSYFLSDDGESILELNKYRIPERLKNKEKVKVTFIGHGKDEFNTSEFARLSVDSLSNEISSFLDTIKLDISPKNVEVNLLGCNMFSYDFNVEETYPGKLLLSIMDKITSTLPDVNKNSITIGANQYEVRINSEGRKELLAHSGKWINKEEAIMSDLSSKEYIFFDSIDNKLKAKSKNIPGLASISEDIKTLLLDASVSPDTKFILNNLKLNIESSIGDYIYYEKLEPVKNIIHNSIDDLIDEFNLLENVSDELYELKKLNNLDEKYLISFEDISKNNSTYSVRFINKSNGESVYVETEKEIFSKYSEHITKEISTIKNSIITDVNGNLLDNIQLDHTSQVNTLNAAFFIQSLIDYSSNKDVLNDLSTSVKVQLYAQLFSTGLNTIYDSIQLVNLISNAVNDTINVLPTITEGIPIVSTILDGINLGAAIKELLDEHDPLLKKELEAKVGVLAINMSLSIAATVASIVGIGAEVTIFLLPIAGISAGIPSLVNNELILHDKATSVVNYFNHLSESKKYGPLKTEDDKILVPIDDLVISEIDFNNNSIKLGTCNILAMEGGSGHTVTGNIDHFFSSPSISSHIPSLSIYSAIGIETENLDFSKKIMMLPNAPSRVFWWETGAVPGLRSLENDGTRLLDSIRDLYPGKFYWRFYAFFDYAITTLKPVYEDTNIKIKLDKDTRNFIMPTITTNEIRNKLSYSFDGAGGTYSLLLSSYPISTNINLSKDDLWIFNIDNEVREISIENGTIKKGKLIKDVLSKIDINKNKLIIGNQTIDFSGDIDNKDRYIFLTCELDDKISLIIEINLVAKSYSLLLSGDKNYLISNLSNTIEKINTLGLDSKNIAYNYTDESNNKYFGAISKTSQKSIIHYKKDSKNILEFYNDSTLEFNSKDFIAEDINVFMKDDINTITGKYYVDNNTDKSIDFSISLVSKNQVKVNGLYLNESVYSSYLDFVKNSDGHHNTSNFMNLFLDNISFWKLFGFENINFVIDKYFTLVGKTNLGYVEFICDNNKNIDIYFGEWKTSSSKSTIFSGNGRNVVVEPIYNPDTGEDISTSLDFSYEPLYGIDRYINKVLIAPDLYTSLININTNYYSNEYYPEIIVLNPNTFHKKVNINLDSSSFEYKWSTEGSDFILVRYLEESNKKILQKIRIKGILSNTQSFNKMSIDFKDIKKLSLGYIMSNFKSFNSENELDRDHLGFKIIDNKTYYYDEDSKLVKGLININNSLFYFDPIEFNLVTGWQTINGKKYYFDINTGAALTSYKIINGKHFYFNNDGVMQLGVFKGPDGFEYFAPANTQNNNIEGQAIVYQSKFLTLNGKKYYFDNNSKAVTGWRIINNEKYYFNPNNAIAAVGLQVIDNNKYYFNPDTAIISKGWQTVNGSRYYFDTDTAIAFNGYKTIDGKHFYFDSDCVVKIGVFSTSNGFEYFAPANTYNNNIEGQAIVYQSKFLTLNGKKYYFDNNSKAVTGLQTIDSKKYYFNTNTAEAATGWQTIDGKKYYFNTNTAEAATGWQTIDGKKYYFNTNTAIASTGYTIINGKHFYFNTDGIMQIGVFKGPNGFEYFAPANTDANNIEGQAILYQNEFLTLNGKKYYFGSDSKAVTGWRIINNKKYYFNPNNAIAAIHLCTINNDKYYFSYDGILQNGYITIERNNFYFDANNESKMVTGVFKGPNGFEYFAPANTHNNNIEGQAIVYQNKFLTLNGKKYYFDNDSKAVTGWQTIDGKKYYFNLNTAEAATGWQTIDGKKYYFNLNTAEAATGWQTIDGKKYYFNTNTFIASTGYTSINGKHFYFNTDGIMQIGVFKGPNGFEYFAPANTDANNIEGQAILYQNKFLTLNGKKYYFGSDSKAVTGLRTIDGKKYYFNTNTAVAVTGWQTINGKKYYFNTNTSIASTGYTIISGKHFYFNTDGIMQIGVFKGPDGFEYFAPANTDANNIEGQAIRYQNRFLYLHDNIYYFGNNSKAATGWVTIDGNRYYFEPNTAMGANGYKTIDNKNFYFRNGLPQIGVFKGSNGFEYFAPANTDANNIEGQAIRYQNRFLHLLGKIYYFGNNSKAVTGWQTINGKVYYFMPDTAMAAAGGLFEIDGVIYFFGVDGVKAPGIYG

In the case of sialyllactose, the “effect against C. difficile toxin A (TER, normalized protection score)” value is reported as “a comparable effect was not achieved”.
